Data on 14 compounds can be found in patent publication US4333930A, “Orthoarylideneaminophenethylamines and pharmaceutical compositions” (priority 1980, dated 1982).

Structures can show the parent of a compound that is named as a salt. Where two headings read alike, the source gives them in different places.

Data set [1] has as its system number of escapes the animal made in 5 minutes. The data set is described as follows: Escape test, Table 3. Format: in vivo, mouse. From the text:
The products of the invention were always administered orally in 6% gum base.
The notation NS signifies that the difference between the results noted for the product and the results noted for the excipient alone is not significant at the threshold 0.05 according to the Student t Test.

The test system of data set [2] is phenylbenzoquinone (PBQ). The data set is described as follows: Analgesic activity using phenylbenzoquinone (PBQ) as noxious agent, Table 2. Format: in vivo, male Swiss mouse. The note with it: Mus musculus. As for the experimental part: The analgesic activity was determined with the male Swiss mouse using phenylbenzoquinone (PBQ) (a variation of the method of Siegmund et al, Proc. Soc. Exp. Med., […], 95, 729-31) as the noxious agent. Twenty-eightminutes after having administered the test products in a suspension in a 6% gum base, the PBQ solution was injected. The mice were then observed ca. 5 mn. for the next five minutes.
% of analgesic activity as a function of
the dose expressed in mg/kg

The nature of data set [3]: Oral toxicity (mortality) in the mouse, Table 1. Format: in vivo. The note with it: mouse, in vivo, po, Swiss mice, 14 days. As for the experimental part: The mortality percentages caused by the products of the present invention administered orally to Swiss mice are shown in Table 1. The animals, free of specific pathological organism were housed in an air conditioned room from 24 to 48 hours before the start of the experiments. They were divided up into lots of 5 males and 5 females. With the animals unfed for 24 hours, the substances were administered intragastrically in a base of 6% gum arabic in a volume equal to 0.1 ml for 10 g of animal weight. The mortality was recorded at 14 days.
% of mortality as a function of the dose

Data set [4] relates to ptosis induced by reserpine. Description: Antagonism of ptosis induced by reserpine, Table 6. The following applies: read-out: % of inhibition of ptosis induced by reserpine. Format: in vivo. From the text: (§1) The psychotropic profile of the present invention products has been characterized with the animals in numerous tests some of whose results are shown hereinafter. The products of the invention were always administered orally in 6% gum base.
(§2) Certain tests made it possible to show antidepressive activities. These are tests of antagonism to the effects of reserpine, oxotremorine (according to Everett G. M. et al, Science, 1956, 124, 79 and Levy J. et al, Therapie 1965, 20, 265) and to despair (according to Porsolt P. D. et al, Eur. J. Pharmacol., 1978, 47, 379-91).
% of inhibition of ptosis induced by reserpine
as a function of the dose administered orally

Data set [5] deals with number of displacements of the animal. The data set is described as follows: Four plates test (anxiolytic activity), Table 5. The following applies: oral, mouse. Format: in vivo.
From the text: as §1
A certain number of products manifest an anxiolytic activity evidenced in the test with the four plates with the mouse (Table 5).
% of increase in the number of displacements of the
animal as a function of the dose expressed in mg/kg

Data set [6] concerns trembling induced by oxotremorine. Description: Antagonism of trembling induced by oxotremorine, Table 7. The following applies: oral, read-out: % of inhibition of trembling induced by oxotremorine. The format is in vivo.
From the text: as §1, §2
% of inhibition of trembling induced by
oxotremorine as a function of the dose
administered expressed in mg/kg

Where [7] appears, read: read-out: % of analgesic activity, 100 mg/kg, male Swiss mouse, PBQ.
[8] abbreviates: read-out: % of analgesic activity, 200 mg/kg, male Swiss mouse, PBQ.
Where [9] appears, read: 50 mg/kg, male Swiss mouse, PBQ, read-out: % of analgesic activity.
The mark [10] stands for this setting: 100 mg/kg, male Swiss mouse, PBQ, read-out: % of analgesic activity.
The mark [11] stands for this setting: 200 mg/kg, male Swiss mouse, PBQ, read-out: % of analgesic activity.
[12] abbreviates: read-out: % of analgesic activity, 50 mg/kg, male Swiss mouse, PBQ.
Setting [13] is: Mus musculus, po, 5 min, read-out: % of activity (variation of the number of escapes).
[14] abbreviates: 5 min, 50 mg/kg, oral, mouse, 5 minutes, read-out: % of activity (variation of the number of escapes).
The mark [15] stands for this setting: 5 min, oral, mouse, 5 minutes, read-out: % of activity (variation of the number of escapes).

Regarding “2-(2-N,N-dimethylamino-1-methylethyl)-N-pyridylidene-3 aniline [COR 01 213]”, the “% of activity (variation of the number of escapes)” value in data set [1] (100 mg/kg, oral, mouse, 5 minutes) is given as -20%.

Consider `CC(=O)Oc1ccccc1C(=O)O` [Acetylsalicyclic acid, reference compound], for which the inhibition in vivo at 100 mg/kg in data set [2] (setting [7]) stood at 55%. The inhibition in vivo at 200 mg/kg in data set [2] (setting [8]) was 61%.

The mortality is the percentage killed. For `CN(C)CCc1cc2c(cc1N=Cc1ccccc1C(=O)O)OCO2` [COR 01 142, N-6-(2-N,N-dimethylaminoethyl)-1,3-benzodioxol-5-yl-2-formimidoylbenzoic acid, internal salt], the inhibition in vivo at 50 mg/kg in data set [2] (setting [9]) came out at 22%. In data set [2] (setting [10]), the inhibition in vivo at 100 mg/kg stood at 20%. Moreover, in data set [2] (setting [11]), the inhibition in vivo at 200 mg/kg turned out to be 10%. The mortality at 336 h in data set [3] (1000 mg/kg) was determined as 0%; in data set [3] (2000 mg/kg), 50%.

Take `Cc1ccc(C=Nc2cc3c(cc2CCN(C)C)OCO3)s1` [COR 01 169]: the inhibition in vivo at 50 mg/kg in data set [2] (setting [12]) stood at 7%. The inhibition in vivo at 100 mg/kg in data set [2] (setting [7]) is 43%. The results for the mortality at 336 h in data set [3] (750 mg/kg), in data set [3] (1000 mg/kg) and in data set [3] (1500 mg/kg) were 50%, 20% and 80%, respectively.

`C(=Nc1cc2c(cc1CCN1CCCCC1)OCO2)c1cccs1` [COR 01 175, 6-(2-N-piperidinoethyl) N-(thienylidene-2)-1,3-benzodioxole-5-ylamine]: the inhibition in vivo at 100 mg/kg in data set [2] (setting [10]) is 13%. The inhibition in vivo at 200 mg/kg in data set [2] (setting [11]) amounted to 71%. For the same compound, the mortality at 336 h in data set [3] (250 mg/kg) turned out to be 0%; in data set [3] (500 mg/kg), 10%; in data set [3] (750 mg/kg), 10%.

Take `CN(C)CCc1cc2c(cc1N=Cc1ccc(Br)s1)OCO2` [COR 01 181]: the inhibition in vivo at 50 mg/kg in data set [2] (setting [12]) was 25%. For the same compound, in data set [2] (setting [7]), the inhibition in vivo at 100 mg/kg is 42%. Further, the values for the mortality at 336 h in data set [3] (250 mg/kg) and in data set [3] (500 mg/kg) were 0% and 30%, respectively.

For `CN(C)CCc1ccccc1N=CC=Cc1ccccc1` [COR 01 185, N-cinnamylidene 2-(2-N,N,-dimethylaminoethyl)aniline], the mortality at 336 h came out at 0% in data set [3] (1500 mg/kg) and 100% in data set [3] (2000 mg/kg).

As for `CC(C)(C)NCCc1cc2c(cc1N=Cc1cccnc1)OCO2` [COR 01 195], the inhibition in vivo at 100 mg/kg in data set [2] (setting [7]) amounted to 24%. Moreover, the inhibition in vivo at 200 mg/kg in data set [2] (setting [8]) is 31%. In data set [1] (setting [13]), the change in vivo at 3 mg/kg was found to be 54%. For the same compound, the change in vivo at 5 mg/kg in data set [1] (setting [13]) came to 53%. Also, the change in vivo at 50 mg/kg in data set [1] (setting [13]) is 19%; in data set [4] (po), -22%. Further, the change in vivo at 100 mg/kg is 28% in data set [1] (setting [13]) and -22% in data set [4] (po). The mortality at 336 h in data set [3] (1000 mg/kg) is 0%; in data set [3] (1500 mg/kg), 20%; in data set [3] (2000 mg/kg), 30%.

In the case of `C(=Cc1ccccc1)C=Nc1cc2c(cc1CCN1CCCC1)OCO2` [COR 01 200], the “% of increase in the number of displacements of the animal” value in data set [5] (5 mg/kg) is reported as “+112%”; in data set [5] (10 mg/kg), “+180%”; in data set [5] (20 mg/kg), “+292%”; in data set [5] (25 mg/kg), “+142%”; in data set [5] (50 mg/kg), “+84%”. The change in vivo at 10 mg/kg in data set [1] (5 min, 10 mg/kg, oral, mouse, 5 minutes, read-out: % of activity (variation of the number of escapes)) is 25%. For the same compound, in data set [1] (setting [14]), the change in vivo at 50 mg/kg stood at 38%. For the same compound, the mortality at 336 h in data set [3] (750 mg/kg) came to 0%; in data set [3] (1000 mg/kg), 10%; in data set [3] (1500 mg/kg), 70%. In data set [4] (25 mg/kg, oral), the change in vivo at 25 mg/kg was -28%. Moreover, the change in vivo at 100 mg/kg in data set [4] (100 mg/kg, oral) was -24%.

For the compound `C(=Nc1cc2c(cc1CCN1CCOCC1)OCO2)c1cccnc1` [COR 01 204], the change in vivo at 50 mg/kg in data set [6] is -30%; in data set [1] (setting [14]), -24%. The change in vivo at 100 mg/kg in data set [6] was -20%; in data set [1] (5 min, 100 mg/kg, oral, mouse, 5 minutes, read-out: % of activity (variation of the number of escapes)), -15%. The change in vivo at 200 mg/kg in data set [6] is -30%; in data set [1] (setting [15]) it was -24%. Besides, the inhibition in vivo at 50 mg/kg in data set [2] (setting [9]) came to 0%. The inhibition in vivo at 100 mg/kg in data set [2] (setting [10]) came out at 45%. Moreover, the inhibition in vivo at 200 mg/kg in data set [2] (setting [11]) was 42%. Also, the change in vivo at 5 mg/kg in data set [1] (5 min, 5 mg/kg, oral, mouse, 5 minutes, read-out: % of activity (variation of the number of escapes)) is -28%. Moreover, the change in vivo at 25 mg/kg in data set [1] (5 min, 25 mg/kg, oral, mouse, 5 minutes, read-out: % of activity (variation of the number of escapes)) was -31%. The change in vivo at 75 mg/kg in data set [1] (5 min, 75 mg/kg, oral, mouse, 5 minutes, read-out: % of activity (variation of the number of escapes)) is -20%. In addition, the results for the mortality at 336 h in data set [3] (1500 mg/kg) and in data set [3] (2000 mg/kg) were 0% and 10%, respectively.

As to `CN1CCN(CCc2ccccc2N=Cc2cccnc2)CC1` [COR 01 205], the change in vivo at 50 mg/kg in data set [6] is -30%; in data set [4] (50 mg/kg, oral), -31%. Besides, the change in vivo at 100 mg/kg in data set [6] is -30%; in data set [4] (100 mg/kg, oral), -25%. Besides, the change in vivo at 200 mg/kg in data set [6] is -40%; in data set [1] (setting [15]) it was -34%; in data set [4] (200 mg/kg, oral) it was -31%. The inhibition in vivo at 100 mg/kg in data set [2] (setting [10]) is 10%. For the same compound, the inhibition in vivo at 200 mg/kg in data set [2] (setting [11]) came out at 36%. Further, the mortality at 336 h stood at 0% in data set [3] (1000 mg/kg), 10% in data set [3] (1500 mg/kg) and 10% in data set [3] (2000 mg/kg).

`CN(C)CCc1cc2c(cc1N=Cc1ccc(Cl)c(Cl)c1)OCO2` [COR 01 207]: the mortality at 336 h in data set [3] (750 mg/kg) is 0%; in data set [3] (1000 mg/kg) it was 20%; in data set [3] (1500 mg/kg) it was 20%; in data set [3] (2000 mg/kg), 40%.

For `CN(C)CCc1cc2c(cc1N=Cc1ccc(Cl)cc1)OCO2` [COR 01 208], the mortality at 336 h is 0% in data set [3] (500 mg/kg); 30% in data set [3] (750 mg/kg); 20% in data set [3] (1000 mg/kg); 20% in data set [3] (1500 mg/kg); 80% in data set [3] (2000 mg/kg).

With `CC(Cc1ccccc1N=Cc1cccnc1)N(C)C` (stereo not drawn) [COR 01 214, 2-(2-N,N-dimethylamino-2-methylethyl)-N-pyridylidene-3 aniline], the inhibition in vivo at 100 mg/kg in data set [2] (setting [7]) came to 21%. The inhibition in vivo at 200 mg/kg in data set [2] (setting [8]) stood at 30%. Also, the mortality at 336 h was 0% in data set [3] (1000 mg/kg), 30% in data set [3] (1500 mg/kg) and 70% in data set [3] (2000 mg/kg).
